Test results as given in PMC8587714, “Preliminary Assessment of the Anti-inflammatory Activity of New Structural Honokiol Analogs with a 4′-O-(2-Fluoroethyl) Moiety and the Potential of Their ^18F-Labeled Derivatives for Neuroinflammation Imaging” (Molecules, 2021).
Where two headings read alike, the source gives them in different places. Blank lines part the entries; values can stand above or below the compound they belong to.

Legend:
IL-6 and TNF-α = assay: Cytokine assay (ELISA) in LPS-induced neuroinflammation in mice; format: in vivo, C57BL/6 mice; settings: 10 mg/kg for 3 days, 72 h after LPS
[1] = test system: lipid peroxidation products (TBARS); assay: TBARS assay in brain of LPS-injected mice; format: in vivo, C57BL/6 mice; settings: 10 mg/kg for 3 days, 72 h after LPS
Source text: All experiments adhered to regulations of DIRECTIVE 2010/63/EU on the protection of laboratory animals. The procedures with animals were reviewed and approved by the Ethics Committee of Smorodintsev Research Institute of Influenza. […]. The animals were housed in a climate-controlled room with a 12/12-h light cycle. The subjects had ad libitum access to food and water during housing. Neuroinflammation was modeled in animals by intraperitoneal (i.p.) single injection of LPS from Escherichia coli saline O111:B4 (Sigma-Aldrich) at a dose of 2 mg/kg.
In total, 7 groups of 5 individuals in each were studied, including a group of intact animals. […]. The blood collected after decapitation was left in tubes with a serum separator for 30 min, then centrifuged at 611 g (3000 rpm) and 4 °C for 10 min. Blood and brain samples were frozen and stored at −20 °C.
The brain was weighed and 2 mL of ice-cold endotoxin-free PBS containing 0.1% non-ionic detergent Triton X-100 was added to the tissue samples left under ice for 10 min until homogenized with a tissue disruptor. […]
The supernatant diluted with buffer 1:10 was used for analysis. […] Each sample (150 μL) was loaded in duplicate into a 96-well plate, and the absorbance was measured at 535 nm on an EPOCH2TC.

human recombinant COX-1 [2] = molecular target: T1, human recombinant COX-1 (Homo sapiens, UniProt P23219); assay: COX (human) Inhibitor Screening Assay kit (EIA), COX-1
T1 sequence (P23219 24-599): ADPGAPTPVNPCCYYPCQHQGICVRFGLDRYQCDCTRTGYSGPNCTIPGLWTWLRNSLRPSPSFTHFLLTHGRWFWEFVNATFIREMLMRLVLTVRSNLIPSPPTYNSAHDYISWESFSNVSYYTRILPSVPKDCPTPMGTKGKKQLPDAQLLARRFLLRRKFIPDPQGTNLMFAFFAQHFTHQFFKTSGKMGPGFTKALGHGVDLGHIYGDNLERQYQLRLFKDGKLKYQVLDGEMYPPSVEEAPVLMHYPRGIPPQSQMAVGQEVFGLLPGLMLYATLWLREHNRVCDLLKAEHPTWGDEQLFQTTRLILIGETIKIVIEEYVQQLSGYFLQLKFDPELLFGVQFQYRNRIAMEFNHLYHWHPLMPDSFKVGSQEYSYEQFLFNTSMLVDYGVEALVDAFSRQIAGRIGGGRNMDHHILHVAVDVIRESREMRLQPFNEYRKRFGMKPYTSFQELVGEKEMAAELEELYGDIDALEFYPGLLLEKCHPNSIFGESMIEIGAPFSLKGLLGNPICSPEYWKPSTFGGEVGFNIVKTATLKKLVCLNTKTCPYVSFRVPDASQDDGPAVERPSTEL

human recombinant COX-2 [3] = molecular target: T2, human recombinant COX-2 (Homo sapiens, UniProt P35354); assay: COX (human) Inhibitor Screening Assay kit (EIA), COX-2
T2 sequence (P35354 18-604): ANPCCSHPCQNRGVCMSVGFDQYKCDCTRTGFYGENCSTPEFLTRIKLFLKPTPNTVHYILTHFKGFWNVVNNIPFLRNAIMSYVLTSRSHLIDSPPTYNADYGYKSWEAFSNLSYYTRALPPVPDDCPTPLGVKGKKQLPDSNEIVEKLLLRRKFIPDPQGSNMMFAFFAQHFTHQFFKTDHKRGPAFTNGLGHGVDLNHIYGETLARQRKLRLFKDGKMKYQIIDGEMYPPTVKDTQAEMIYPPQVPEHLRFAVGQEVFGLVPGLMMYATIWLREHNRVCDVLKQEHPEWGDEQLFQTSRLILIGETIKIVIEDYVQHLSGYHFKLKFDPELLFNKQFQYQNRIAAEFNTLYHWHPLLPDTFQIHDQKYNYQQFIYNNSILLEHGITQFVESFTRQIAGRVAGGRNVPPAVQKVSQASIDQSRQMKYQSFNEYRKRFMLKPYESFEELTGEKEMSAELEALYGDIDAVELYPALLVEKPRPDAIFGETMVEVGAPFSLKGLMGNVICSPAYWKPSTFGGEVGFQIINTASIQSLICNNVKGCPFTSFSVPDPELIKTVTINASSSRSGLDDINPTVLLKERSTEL

ovine COX-1 = test system: ovine COX-1; set-up: method as in PMID 25074039; settings: ovine COX-1/COX-2 assay kit; cited from earlier work
ovine COX-2 = test system: ovine COX-2; set-up: method as in PMID 25074039; settings: ovine COX-1/COX-2 assay kit; cited from earlier work
human recombinant COX-1 [4] = molecular target: T1, human recombinant COX-1; set-up: purchased Cayman Chemical Company 701230; settings: human COX-1/COX-2 assay kit; cited from earlier work
human recombinant COX-2 [5] = molecular target: T2, human recombinant COX-2; set-up: purchased Cayman Chemical Company 701230; settings: cited from earlier work
[6] = Plasma protein binding by ultrafiltration, rat plasma; format: in vitro ADME
Method: (§1) The ultrafiltration method was used to estimate the protein-free fraction of [^18F]F-IV and [^11C]MPbP in human and rat plasma. Equal volumes (500 μL) of plasma or PBS (control) were mixed with the formulated solution of radioligand (5 MBq,50μL) and incubated at 37 °C for 15 min. After incubation, aliquots of mixture (200 µL) were transferred to the tubes for ultrafiltration (Amicon 3K; Merck) and centrifuged at 7000 g for 15 min. Equal aliquots (20 μL) of ultrafiltrate (Cfree) and plasma (Ctotal) were measured with γ-counter. The obtained data were corrected for the radioligand binding to the filter membrane. Filtrations were performed in duplicate. The unbound (free) fraction of the radioligand was calculated as fu(%) = Cfree/Ctotal × 100%.

[7] = Plasma protein binding by ultrafiltration, human plasma; format: in vitro ADME
Method: as §1

[8] = set-up: method as in doi:10.1002/slct.201904788; settings: all examined organs and brain regions; cited from earlier work
[9] = Plasma-stability study (radio-HPLC); format: in vitro ADME; settings: 37 °C, up to 60 min
Method: The stability of [^18F]F-IV was investigated in human plasma at 37 °C in the range from 0 to 60 min according to a modified protocol. Phosphate-buffered saline (PBS, 0.15 M, pH 7.4) was used as a control. [^18F]F-IV formulated solution (10 µL, ~1 MBq) was added to tubes with PBS (300 µL) and human plasma (300 µL). The mixture was vortexed and incubated at 37 °C. An aliquot of 100 µL from the sample was taken at different time points (0, 10, 20, 40, and 60 min) and mixed with 100 µL ice-cooled acetonitrile and centrifuged (3 min, 4500× g). The supernatants were analyzed by radio-HPLC using XBridge C18 analytical column.

[10] = logD7.4 determination, shake-flask method; format: physicochemical; settings: 1-octanol/phosphate buffer pH 7.4, n = 6; read-out: lipophilicity (logD7.4)
Method: The partition coefficient of [^18F]F-IV (log D7.4) was determined by the shake-flask method for measuring the distribution of radioactivity between 1-octanol and phosphate buffer pH 7.4. Into a tube containing 10 µL of [^18F]F-IV (~1 MBq), 1.5 mL of pre-saturated 1-octanol and 1.5 mL of phosphate buffer were added and vortexed for 15 min. Then, the tube was centrifuged at 3000 g for 5 min to ensure complete separation of the phases. Then, aliquots of 500 μL were taken from each phase into separate tubes and the radioactivity was measured in a γ-counter. The measurements were performed in triplicate. The log D7.4 value was calculated as follows: log (counts per min in 1-octanol/ counts per min in PBS) for five independent experiments.

[11] = Ex vivo biodistribution in intact, LPS-treated and celecoxib-blocked rats; set-up: species or system Wistar rats
Method: Ex vivo biodistribution was intended as a preliminary assessment of the BBB permeability and overall distribution of [^18F]F-IV in LPS-treated and intact Wistar rats. [^18F]F-IV uptake by tissue was expressed as %ID/g (dose administered per gram of tissue). […] The radioligand seems to readily penetrate the BBB, as evidenced by the high initial rate of brain uptake with a peak value of 2.21 ± 0.64 and 2.09 ± 0.65 (%ID/g) in the pons and medulla, respectively, at 10 min post-injection, (Figure 6A). […] The excretion pathway was through the kidneys, and 60 min after injection there was no obvious difference in [^18F]F-IV uptake values between tissues. The lack of significant specific accumulation of radioactivity in the brain, heart, lungs, and kidneys most likely reflects the low baseline level of COX-2 expression in these organs in healthy animals. It should be noted that relatively high initial levels of radioactivity in the blood pool persisted even 120 min after injection of [^18F]F-IV (0.99 ± 0.17 vs. 1.35 ± 0.06%ID/g). This was the main difference in the distribution of [^18F]F-IV and the previously reported [^11C]MPbP in organs and tissues of intact rats.
Ex vivo radioligand biodistribution was performed by direct radiometry of organs and tissue samples of Wistar rats. Each rat was injected with (12 ± 3) MBq (volume ≤ 0.2 mL) of [^18F]F-IV through the tail vein under anesthetic conditions. Control rats were sacrificed at 10 (n = 3), 30 (n = 3), 60 (n = 3), and 120 (n = 3) min after injection. Twenty-four hours prior to ex vivo biodistribution studies, 6 rats received an intraperitoneal (i.p.) injection of LPS (2 mg/kg) from Escherichia coli (O111: B4) or saline (1 mL/kg).
Blood samples and organs of interest, namely, the brain (cerebral cortex, cerebellum, medulla, and pons), thymus, heart, lung, spleen, kidney, liver, bladder, and muscle, were removed and weighed. The radioactivity in each tissue sample was measured by a γ-counter to calculate the percentage of injected dose per gram of tissue (%ID/g). Data were provided as mean ± SEM values.

[12] = rat plasma, read-out: PPB level, rats (converted)
[13] = unbound (free) fraction, 37 °C, n = 3, read-out: fu in Rat Plasma
[14] = human plasma, read-out: PPB level, humans (converted)
[15] = unbound (free) fraction, 37 °C, n = 6, read-out: fu in Human Plasma
[16] = %ID organ/%ID blood, 60 min post-injection
[17] = healthy (intact) rats, 10 min post-injection

SMILES: Cc1ccc(-c2cc(C(F)(F)F)nn2-c2ccc(S(N)(=O)=O)cc2)cc1 [Celecoxib, celecoxib, reference compound]
serum levels of IL-6 and TNF-α (IL-6 and TNF-α): reduced them to levels seen in intact animals
reduction of TBARS levels in brain [1]: little or no effect

SMILES: CCCc1ccc(O)c(-c2ccc(OCCF)c(OC)c2)c1 [F-III, 4′-(2-fluoroethoxy)-3′-methoxy-5-propyl-2-hydroxy-1,1′-biphenyl]
reduction of TBARS levels in brain [1]: 116%

IC50 (human recombinant COX-1 [2]): 4610 nM
IC50 (human recombinant COX-2 [3]): 90 nM
SI (Selectivity Index) (human recombinant COX-2 [3]; SI = COX-1 IC50/COX-2 IC50, human assay kit, this study): 48
SMILES: CCCc1ccc(O)c(-c2ccc(OCCF)cc2)c1 [F-IV, 4′-(2-fluoroethoxy)-2-hydroxy-5-propyl-1,1′-biphenyl]
serum levels of IL-6 and TNF-α (IL-6 and TNF-α): comparable or even superior to that of celecoxib

SMILES: C=CCc1ccc(O)c(-c2ccc(OC)c(CC=C)c2)c1 [MH, 4′-O-methylhonokiol]
IC50 (ovine COX-1): 2400 nM
IC50 (ovine COX-2): 60 nM

SMILES: CCCc1ccc(O)c(-c2ccc(OC)cc2)c1 [MPbP]
IC50 (human recombinant COX-1 [4]): 2530 nM
SI (Selectivity Index) (human recombinant COX-2 [5]; SI = COX-1 IC50/COX-2 IC50, human assay kit): 18
IC50 (human recombinant COX-2 [5]; human COX-1/COX-2 assay kit): 140 nM
experimental ddG between MPbP and F-IV for COX-2 (human recombinant COX-2 [3]; from experimental IC50 values): 0.22 kcal/mol

fraction unbound at 15 min, 9.1 MBq/mL [6, 12]: 0.08
fraction unbound at 15 min, 9.1 MBq/mL [6, 13]: 0.0802 ± 0.0037
fraction unbound at 15 min, 9.1 MBq/mL [7, 14]: 0.02
fraction unbound at 15 min, 9.1 MBq/mL [7, 15]: 0.0188 ± 0.0013
SMILES: CCCc1ccc(O)c(-c2ccc(O[11CH3])cc2)c1 [[^11C]MPbP, 4′-[^11C]methoxy-5-propyl-1,1′-biphenyl-2-ol, reference compound]
uptake in LPS rats vs healthy rats [8]: up to 400%

radiochemical stability in human plasma [9]: 92%
logD [10]: 3.3 ± 0.1
increase in radioactivity in LPS animals vs controls, kidney [11, 16]: 16%
increase in radioactivity in LPS animals vs controls, liver [11, 16]: 23%
increase in radioactivity in LPS animals vs controls, lung [11, 16]: 12%
increase in radioactivity in LPS animals vs controls, spleen [11, 16]: 20%
increase in radioactivity in LPS animals vs controls, thymus [11, 16]: 20%
increase in uptake in LPS-treated vs saline-injected rats, medulla [11, 16]: 16%
increase in uptake in LPS-treated vs saline-injected rats, pons [11, 16]: 5%
reduction in radioactivity by celecoxib blocking ([11]; LPS rats, celecoxib 10 mg/kg i.v. 30 min before radioligand, brain (pons and medulla), heart, lung, kidney): 20–32%
brain uptake peak value, medulla [11, 17]: 2.09 ± 0.65 %ID/g
brain uptake peak value, pons [11, 17]: 2.21 ± 0.64 %ID/g
radioactivity in the blood pool ([11]; intact rats, 120 min after injection): 0.99 ± 0.17 %ID/g
radioactivity in the blood pool, initial level ([11]; intact rats, initial (10 min) level): 1.35 ± 0.06 %ID/g
fraction unbound at 15 min, 9.1 MBq/mL [6, 12]: < 0.02
fraction unbound at 15 min, 9.1 MBq/mL [6, 13]: 0.0201 ± 0.0026
fraction unbound at 15 min, 9.1 MBq/mL [7, 14]: < 0.01
fraction unbound at 15 min, 9.1 MBq/mL [7, 15]: 0.0019 ± 0.0005
SMILES: CCCc1ccc(O)c(-c2ccc(OCC[18F])cc2)c1 [[^18F]F-IV, 4′-(2-[^18F]fluoroethoxy)-2-hydroxy-5-propyl-1,1′-biphenyl]
